Values joined by “and” are separate entries in the source; they are usually repeats but may differ in a detail not shown here. Identical values can stand only once.
Assay: in-vitro planometry/profilometry test of enamel erosion by acidic solutions and beverages
Set-up: species or system human
Procedure: Test solutions were prepared by dissolving the ingredients in water as described in the Table. For test solutions containing sodium polyphosphate, the average chain length (n) of the polyphosphate polymer used was 17. All solutions were prepared to give a pH of 3.0 and a titratable acidity of 0.5% w/v CAMH (citric acid monohydrate). Where calcium was added, the molar ratio of calcium: citric acid used was about 0.08. The erosive effect of the solutions was evaluated using in-vitro planometry tests in which flat dental enamel sections were exposed to test solutions at a temperature of 37° C. for 4 hours. […] Erosive effect was evaluated by physical measurement of the depth of enamel (in microns) lost during the procedure.
A. Solutions were prepared containing approximately equivalent molar concentrations of phosphate groups dissolved in 0.3% w/v citric acid monohydrate (CAMH), pH 3.4. pH was adjusted by the addition of NaOH as required. […] Additionally sodium polyphosphate n≈4, 7, 28 was from Chemische Fabrik Budenheim, Budenheim, Germany, and sodium polyphosphate n≈12, 21, 25 was from Rhodia Ltd. Widnes, Cheshire, UK. Enamel specimens were placed in the solutions with stirring at 37 C for 4 hours and the amount of enamel lost from the surface during that time measured by profilometry as described previously.
The acidulant employed was 0.3% w/v citric acid monohydrate. Citric acid is one of the most commonly employed food acidulants. Adjustment of pH where required was achieved by the addition of NaOH.

O=P([O-])([O-])OP(=O)([O-])[O-].[Na+].[Na+].[Na+].[Na+] [Tetra-sodium pyrophosphate]
4 Hr Enamel Loss (phosphate salt 1.08 g/L, Ca 80 ppm, 0.5% w/v CAMH, pH 3.0): 28.6 microns | 4 Hr Enamel Loss (phosphate salt 1.08 g/L, Ca 80 ppm, 0.5% w/v CAMH, pH 3.0, listed as Tetra sodium pyrophosphate): 28.63 microns | 4 Hr Enamel Loss (phosphate salt 1.08 g/L, Ca 80 ppm, 0.5% w/v CAMH, pH 3.0, listed as sodium pyrophosphate): about 29 microns | 4 Hr Enamel Loss (phosphate salt 1.08 g/L, no Ca, 0.3% w/v CAMH, pH 3.4): 34.9 microns

O=P(O)(O)O [Sodium phosphate]
4 Hr Enamel Loss (phosphate salt 0.65 g/L, Ca 80 ppm, 0.5% w/v CAMH, pH 3.0): 33.4 microns and 33.39 microns | 4 Hr Enamel Loss (phosphate salt 0.65 g/L, Ca 80 ppm, 0.5% w/v CAMH, pH 3.0, listed as sodium phosphate): about 33 microns | 4 Hr Enamel Loss (phosphate salt 0.65 g/L, no Ca, 0.3% w/v CAMH, pH 3.4): 34.05 microns

O=P([O-])([O-])OP(=O)([O-])OP(=O)([O-])[O-].[Na+].[Na+].[Na+].[Na+].[Na+] [Penta-sodium triphosphate]
4 Hr Enamel Loss (phosphate salt 0.61 g/L, Ca 80 ppm, 0.5% w/v CAMH, pH 3.0, listed as Penta sodium triphosphate, triphosphate): 20.09 microns | 4 Hr Enamel Loss (phosphate salt 0.61 g/L, Ca 80 ppm, 0.5% w/v CAMH, pH 3.0, listed as sodium tri-phosphate, triphosphate): about 20 microns | 4 Hr Enamel Loss (phosphate salt 0.61 g/L, Ca 80 ppm, 0.5% w/v CAMH, pH 3.0, triphosphate): 20.1 microns | 4 Hr Enamel Loss (phosphate salt 0.61 g/L, no Ca, 0.3% w/v CAMH, pH 3.4): 29.6 microns

O=C([O-])[O-].[Ca+2] [Ca, calcium carbonate]
4 Hr Enamel Loss (Ca 80 ppm alone, no phosphate salt, no gum, 0.5% w/v CAMH, pH 3.0): 41.1 microns and 80 microns | 4 Hr Enamel Loss (Ca 80 ppm alone, no phosphate salt, 0.3% w/v CAMH, pH 3.4): 42.8 microns | 4 Hr Enamel Loss (Ca 100 ppm alone, no polyphosphate, 0.3% w/v CAMH, pH 3.2): 31.5 microns | 4 Hr Enamel Loss (Ca 200 ppm alone, no polyphosphate, 0.3% w/v CAMH, pH 3.2): 25.2 microns

Source: US20040091517A1, “Use of polyphospate as a tooth erosion inhibitors in acidic compositions” (priority 2000, published 2004)
